Molecules are shown by their SMILES.

Experiment [1] deals with T1, Dual specificity mitogen-activated protein kinase kinase 5 (Homo sapiens) (UniProt Q13163).
T1 sequence (whole entry): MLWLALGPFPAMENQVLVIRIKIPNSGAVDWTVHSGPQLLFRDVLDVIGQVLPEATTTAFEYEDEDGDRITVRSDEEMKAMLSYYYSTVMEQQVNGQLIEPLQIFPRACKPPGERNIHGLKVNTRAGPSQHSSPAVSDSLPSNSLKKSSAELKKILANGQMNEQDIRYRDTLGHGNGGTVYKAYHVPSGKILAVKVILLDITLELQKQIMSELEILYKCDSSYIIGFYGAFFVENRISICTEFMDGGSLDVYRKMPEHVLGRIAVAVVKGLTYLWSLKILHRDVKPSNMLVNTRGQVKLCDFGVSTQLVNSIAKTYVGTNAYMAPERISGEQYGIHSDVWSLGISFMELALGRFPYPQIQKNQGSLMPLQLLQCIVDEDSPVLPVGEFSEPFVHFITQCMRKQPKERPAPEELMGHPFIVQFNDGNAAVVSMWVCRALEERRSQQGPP
The experiment is described as follows: Selectivity interaction (KinomeScan (DiscoverX)) EUB0000698a MAP2K5. To be noted: at 10 µM.

The target of experiment [2] is T2, Mitogen-activated protein kinase 15 (Homo sapiens) (UniProt Q8TD08).
T2 sequence (whole entry): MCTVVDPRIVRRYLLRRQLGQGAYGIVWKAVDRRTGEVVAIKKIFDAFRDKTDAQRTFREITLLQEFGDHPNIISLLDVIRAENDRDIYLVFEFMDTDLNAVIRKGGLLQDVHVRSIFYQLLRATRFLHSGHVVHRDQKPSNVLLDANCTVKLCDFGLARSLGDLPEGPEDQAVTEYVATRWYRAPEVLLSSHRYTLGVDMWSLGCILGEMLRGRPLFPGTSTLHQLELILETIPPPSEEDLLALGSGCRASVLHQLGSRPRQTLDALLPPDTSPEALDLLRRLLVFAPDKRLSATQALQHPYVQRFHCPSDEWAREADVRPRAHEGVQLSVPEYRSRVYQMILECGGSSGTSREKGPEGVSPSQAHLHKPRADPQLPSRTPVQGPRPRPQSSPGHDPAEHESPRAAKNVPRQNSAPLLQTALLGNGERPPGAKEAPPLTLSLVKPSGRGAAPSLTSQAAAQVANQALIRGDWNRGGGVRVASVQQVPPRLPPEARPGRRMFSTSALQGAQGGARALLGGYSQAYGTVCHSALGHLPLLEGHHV
Nature of the experiment: Selectivity interaction (KinomeScan (DiscoverX)) EUB0000702a MAPK15. To be noted: at 1 µM.

Experiment [3] concerns the target Serine/threonine-protein kinase 10 (Homo sapiens) (UniProt O94804). To be noted: at 1 µM.
In experiment [4] the target is Proto-oncogene tyrosine-protein kinase ROS (Homo sapiens) (UniProt P08922). To be noted: at 1 µM.
Experiment [5] concerns the target Serine/threonine-protein kinase 17A (Homo sapiens, UniProt Q9UEE5). The experiment is described as follows: Selectivity interaction (KinomeScan (DiscoverX, competition-binding assay)) EUB0000305b STK17A.
In experiment [6] the target is Mitogen-activated protein kinase kinase kinase 3 (Homo sapiens, UniProt Q99759). Nature of the experiment: Selectivity interaction (Enzymatic assay) EUB0000178b MAP3K3.
In experiment [7] the target is D(1A) dopamine receptor (Homo sapiens, UniProt P21728). Nature of the experiment: Selectivity interaction (GPCR panel (PDSP screen)) EUB0000138c DRD1.
Experiment [8] has as its target T3, Tyrosine-protein kinase JAK3 (Homo sapiens) (UniProt P52333).
T3 sequence (whole entry): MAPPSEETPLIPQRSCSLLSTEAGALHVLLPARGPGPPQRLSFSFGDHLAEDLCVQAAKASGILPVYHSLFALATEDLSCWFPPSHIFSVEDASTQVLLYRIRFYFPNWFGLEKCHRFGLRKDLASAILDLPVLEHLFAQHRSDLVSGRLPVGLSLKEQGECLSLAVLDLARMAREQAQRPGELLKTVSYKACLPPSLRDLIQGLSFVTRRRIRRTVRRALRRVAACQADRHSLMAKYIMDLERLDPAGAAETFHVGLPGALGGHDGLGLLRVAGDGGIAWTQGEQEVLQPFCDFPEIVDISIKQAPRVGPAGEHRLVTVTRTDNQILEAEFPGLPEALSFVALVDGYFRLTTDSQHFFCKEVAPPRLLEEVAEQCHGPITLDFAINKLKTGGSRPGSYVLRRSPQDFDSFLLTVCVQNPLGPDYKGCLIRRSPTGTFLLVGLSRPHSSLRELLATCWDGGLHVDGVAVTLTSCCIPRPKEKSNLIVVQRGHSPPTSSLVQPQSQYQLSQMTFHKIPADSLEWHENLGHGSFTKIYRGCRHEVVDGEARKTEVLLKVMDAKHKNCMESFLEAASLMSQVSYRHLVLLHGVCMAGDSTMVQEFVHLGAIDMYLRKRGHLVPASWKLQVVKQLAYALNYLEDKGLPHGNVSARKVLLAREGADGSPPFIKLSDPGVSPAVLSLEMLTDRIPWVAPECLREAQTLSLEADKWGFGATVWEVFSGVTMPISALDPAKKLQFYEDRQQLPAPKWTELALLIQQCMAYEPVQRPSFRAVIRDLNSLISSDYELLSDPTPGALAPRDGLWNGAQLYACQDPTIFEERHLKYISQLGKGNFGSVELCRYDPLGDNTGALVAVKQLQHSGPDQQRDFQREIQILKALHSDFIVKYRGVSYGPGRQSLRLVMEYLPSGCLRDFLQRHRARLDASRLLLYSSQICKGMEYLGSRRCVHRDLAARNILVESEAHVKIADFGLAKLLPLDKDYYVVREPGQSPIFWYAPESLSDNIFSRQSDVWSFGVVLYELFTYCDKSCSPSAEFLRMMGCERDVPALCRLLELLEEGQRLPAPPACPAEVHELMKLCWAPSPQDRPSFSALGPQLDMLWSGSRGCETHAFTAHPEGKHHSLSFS
The experiment is described as follows: Selectivity interaction (KinomeScan (DiscoverX)) EUB0000138c JAK3. The note with it: at 100 nM.

Serine/threonine-protein kinase 17A, sequence (Q9UEE5 whole entry): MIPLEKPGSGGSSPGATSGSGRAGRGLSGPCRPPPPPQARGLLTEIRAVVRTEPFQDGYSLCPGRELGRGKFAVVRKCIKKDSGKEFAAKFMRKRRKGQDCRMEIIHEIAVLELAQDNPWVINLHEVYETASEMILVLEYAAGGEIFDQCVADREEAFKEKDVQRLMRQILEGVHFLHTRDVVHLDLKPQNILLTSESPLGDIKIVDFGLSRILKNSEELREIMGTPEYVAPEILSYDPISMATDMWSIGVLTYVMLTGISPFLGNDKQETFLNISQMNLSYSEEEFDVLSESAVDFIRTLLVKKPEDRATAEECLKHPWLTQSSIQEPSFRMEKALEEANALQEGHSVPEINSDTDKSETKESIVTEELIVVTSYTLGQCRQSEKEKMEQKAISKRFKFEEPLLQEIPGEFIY
Proto-oncogene tyrosine-protein kinase ROS (Homo sapiens), sequence (P08922 whole entry): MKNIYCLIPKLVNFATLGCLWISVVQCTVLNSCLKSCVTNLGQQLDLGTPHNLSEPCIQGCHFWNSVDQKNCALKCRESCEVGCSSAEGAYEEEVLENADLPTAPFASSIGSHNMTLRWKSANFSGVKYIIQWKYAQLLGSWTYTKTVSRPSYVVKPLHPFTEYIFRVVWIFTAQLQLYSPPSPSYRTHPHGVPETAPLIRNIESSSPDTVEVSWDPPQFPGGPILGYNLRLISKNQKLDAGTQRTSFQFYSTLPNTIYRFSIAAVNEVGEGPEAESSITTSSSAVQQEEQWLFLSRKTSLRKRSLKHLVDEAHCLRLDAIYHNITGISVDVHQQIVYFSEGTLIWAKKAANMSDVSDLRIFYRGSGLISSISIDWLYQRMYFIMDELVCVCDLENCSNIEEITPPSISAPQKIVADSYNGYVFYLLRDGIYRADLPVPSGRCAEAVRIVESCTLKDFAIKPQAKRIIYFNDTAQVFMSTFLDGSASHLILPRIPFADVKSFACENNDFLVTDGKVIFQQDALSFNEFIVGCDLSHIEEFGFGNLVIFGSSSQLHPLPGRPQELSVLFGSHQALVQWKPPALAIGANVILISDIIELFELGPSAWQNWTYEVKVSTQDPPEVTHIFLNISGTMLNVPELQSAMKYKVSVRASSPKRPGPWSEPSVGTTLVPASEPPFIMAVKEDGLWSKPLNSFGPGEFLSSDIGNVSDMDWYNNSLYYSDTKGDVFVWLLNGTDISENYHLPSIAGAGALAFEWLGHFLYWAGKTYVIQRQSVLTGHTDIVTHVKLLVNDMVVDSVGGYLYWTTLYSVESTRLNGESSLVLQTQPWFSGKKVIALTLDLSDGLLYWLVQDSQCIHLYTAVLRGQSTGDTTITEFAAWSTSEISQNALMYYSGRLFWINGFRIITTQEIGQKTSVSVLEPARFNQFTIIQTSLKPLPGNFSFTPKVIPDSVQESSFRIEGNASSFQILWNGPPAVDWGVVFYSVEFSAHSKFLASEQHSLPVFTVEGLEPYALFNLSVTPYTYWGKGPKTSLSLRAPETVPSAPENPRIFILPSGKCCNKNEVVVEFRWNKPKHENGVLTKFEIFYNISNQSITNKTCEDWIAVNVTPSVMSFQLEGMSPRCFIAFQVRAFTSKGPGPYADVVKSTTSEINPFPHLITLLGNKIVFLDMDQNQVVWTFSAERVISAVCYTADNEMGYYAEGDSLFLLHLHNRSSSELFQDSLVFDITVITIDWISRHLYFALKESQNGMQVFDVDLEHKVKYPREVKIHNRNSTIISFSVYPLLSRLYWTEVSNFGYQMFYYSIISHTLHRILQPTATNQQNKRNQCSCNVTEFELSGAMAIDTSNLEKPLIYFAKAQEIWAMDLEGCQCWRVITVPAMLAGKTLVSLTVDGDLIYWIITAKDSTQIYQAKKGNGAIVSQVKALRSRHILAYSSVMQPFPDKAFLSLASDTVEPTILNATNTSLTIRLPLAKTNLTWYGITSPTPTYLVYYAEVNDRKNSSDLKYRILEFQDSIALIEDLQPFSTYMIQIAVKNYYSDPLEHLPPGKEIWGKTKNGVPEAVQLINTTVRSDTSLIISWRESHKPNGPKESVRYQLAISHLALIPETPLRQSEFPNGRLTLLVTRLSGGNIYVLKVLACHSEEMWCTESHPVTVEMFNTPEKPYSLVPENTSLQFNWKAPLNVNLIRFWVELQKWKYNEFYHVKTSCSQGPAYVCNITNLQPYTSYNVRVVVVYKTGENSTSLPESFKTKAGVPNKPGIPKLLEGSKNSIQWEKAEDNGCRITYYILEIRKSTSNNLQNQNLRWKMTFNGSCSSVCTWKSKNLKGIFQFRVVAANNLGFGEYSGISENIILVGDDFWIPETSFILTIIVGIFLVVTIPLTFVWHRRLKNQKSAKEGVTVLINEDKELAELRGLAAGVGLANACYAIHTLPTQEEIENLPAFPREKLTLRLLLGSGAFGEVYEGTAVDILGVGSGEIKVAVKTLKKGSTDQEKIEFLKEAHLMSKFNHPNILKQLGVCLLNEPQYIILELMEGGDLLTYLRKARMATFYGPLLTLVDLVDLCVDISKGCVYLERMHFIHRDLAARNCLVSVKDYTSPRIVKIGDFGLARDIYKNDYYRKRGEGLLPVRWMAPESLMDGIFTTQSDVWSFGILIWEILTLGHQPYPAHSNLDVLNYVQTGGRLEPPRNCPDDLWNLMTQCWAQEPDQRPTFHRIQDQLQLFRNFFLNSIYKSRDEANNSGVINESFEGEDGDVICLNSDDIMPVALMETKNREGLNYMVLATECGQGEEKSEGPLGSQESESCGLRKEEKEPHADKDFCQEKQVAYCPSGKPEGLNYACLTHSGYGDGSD
Mitogen-activated protein kinase kinase kinase 3, sequence (Q99759 whole entry): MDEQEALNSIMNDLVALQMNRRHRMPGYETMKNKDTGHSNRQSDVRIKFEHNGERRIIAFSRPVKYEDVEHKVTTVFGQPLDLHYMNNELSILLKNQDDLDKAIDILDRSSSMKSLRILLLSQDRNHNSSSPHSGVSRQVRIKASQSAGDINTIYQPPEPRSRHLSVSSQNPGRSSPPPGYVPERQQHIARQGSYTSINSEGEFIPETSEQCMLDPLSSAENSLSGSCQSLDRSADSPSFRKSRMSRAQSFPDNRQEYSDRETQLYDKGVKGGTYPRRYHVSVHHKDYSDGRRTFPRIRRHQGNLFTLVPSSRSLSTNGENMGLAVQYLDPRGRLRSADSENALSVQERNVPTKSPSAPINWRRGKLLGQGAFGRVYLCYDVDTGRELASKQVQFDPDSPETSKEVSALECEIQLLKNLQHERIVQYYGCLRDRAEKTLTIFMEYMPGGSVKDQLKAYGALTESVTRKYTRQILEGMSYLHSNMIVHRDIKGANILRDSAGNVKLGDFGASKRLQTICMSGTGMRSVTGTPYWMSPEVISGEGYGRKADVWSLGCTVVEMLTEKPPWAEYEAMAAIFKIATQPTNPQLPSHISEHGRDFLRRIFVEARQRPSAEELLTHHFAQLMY
D(1A) dopamine receptor, sequence (P21728 whole entry): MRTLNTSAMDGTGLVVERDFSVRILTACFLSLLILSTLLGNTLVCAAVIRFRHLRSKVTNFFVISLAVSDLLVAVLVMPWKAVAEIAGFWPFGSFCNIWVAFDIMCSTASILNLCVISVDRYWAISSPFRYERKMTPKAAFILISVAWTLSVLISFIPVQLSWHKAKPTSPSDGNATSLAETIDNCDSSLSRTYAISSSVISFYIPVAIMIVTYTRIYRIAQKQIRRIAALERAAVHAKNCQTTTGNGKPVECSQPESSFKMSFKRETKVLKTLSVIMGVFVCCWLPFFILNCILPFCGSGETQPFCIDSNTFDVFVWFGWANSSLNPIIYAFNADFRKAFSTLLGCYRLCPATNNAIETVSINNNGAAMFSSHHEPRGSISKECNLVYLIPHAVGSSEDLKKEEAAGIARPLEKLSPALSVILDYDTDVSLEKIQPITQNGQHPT
Serine/threonine-protein kinase 10 (Homo sapiens), sequence (O94804 whole entry, looked up): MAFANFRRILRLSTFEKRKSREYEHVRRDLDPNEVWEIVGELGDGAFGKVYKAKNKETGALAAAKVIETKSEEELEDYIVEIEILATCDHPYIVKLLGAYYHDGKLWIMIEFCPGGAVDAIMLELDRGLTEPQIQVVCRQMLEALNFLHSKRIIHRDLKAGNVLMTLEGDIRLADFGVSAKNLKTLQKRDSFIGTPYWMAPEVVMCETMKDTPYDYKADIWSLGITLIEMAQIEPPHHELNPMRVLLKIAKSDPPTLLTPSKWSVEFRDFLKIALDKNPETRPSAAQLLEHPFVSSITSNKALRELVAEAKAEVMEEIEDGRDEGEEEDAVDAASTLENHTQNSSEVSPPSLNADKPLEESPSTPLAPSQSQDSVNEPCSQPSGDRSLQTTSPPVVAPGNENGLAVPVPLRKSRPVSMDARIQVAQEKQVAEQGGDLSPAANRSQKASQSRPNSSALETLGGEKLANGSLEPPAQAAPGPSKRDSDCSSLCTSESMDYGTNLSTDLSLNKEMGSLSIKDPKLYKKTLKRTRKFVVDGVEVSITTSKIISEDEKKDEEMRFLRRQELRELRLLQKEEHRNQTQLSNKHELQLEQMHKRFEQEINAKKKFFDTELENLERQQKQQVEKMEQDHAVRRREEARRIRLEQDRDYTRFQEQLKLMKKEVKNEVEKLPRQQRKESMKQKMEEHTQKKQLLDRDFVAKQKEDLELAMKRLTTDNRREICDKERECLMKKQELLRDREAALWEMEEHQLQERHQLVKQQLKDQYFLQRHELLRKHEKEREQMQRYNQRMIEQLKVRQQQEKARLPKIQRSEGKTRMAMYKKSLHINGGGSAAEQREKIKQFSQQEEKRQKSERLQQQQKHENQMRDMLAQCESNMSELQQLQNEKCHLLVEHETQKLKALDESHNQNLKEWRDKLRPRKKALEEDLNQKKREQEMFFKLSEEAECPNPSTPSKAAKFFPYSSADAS

For the compound `COc1cc2ncn(-c3cc(OCc4ccccc4C(F)(F)F)c(C(N)=O)s3)c2cc1OC` [GW843682X], in experiment [1], the % of control was determined as 0.5%. As for `CN(c1ccnc(CNc2nc(Nc3ccc4c(c3)CC(=O)N4)ncc2C(F)(F)F)n1)S(C)(=O)=O` [PF-00911705], the % of control in experiment [2] is 4.8%. As to `CCOc1cn(-c2ccc(F)cc2C)nc1C(=O)Nc1ccc(Oc2ccnc3cc(OC)c(OC)cc23)c(F)c1`, the % of control in experiment [3] and in experiment [4] was less than 10% throughout. As for `C[C@H](c1ccnc(Nc2nc3ccc(-c4cc(N(C)C)ncn4)cc3[nH]2)c1)N1CCN(C(=O)CC(F)(F)F)CC1` [BAY-985], in experiment [5], the Kd (in general, the equilibrium constant for the complex coming apart) worked out at 0.074 µM. For the compound `CN1C(=O)c2sccc2N(C)c2nc(Nc3ccc(S(N)(=O)=O)cc3)ncc21`, half-maximal inhibition in experiment [6] (IC50) required 0.0348 µM. Consider `CNC(=O)c1ccc(Nc2ncc(C(F)(F)F)c(NCc3nccnc3N(C)S(C)(=O)=O)n2)cc1` [DEFACTINIB], for which the inhibition constant Ki (as a rule, the equilibrium dissociation constant of an inhibitor or competing ligand from its target) in experiment [7] is more than 10 µM. The same compound showed a % of control in experiment [8] of 8.2%.

The values above are taken from ChEMBL document CHEMBL5212743, “Selectivity Literature for EUbOPEN Chemogenomics Library wave 3” (2023).
